Results: PMC3022755, “HP1 Recruits Activity-Dependent Neuroprotective Protein to H3K9me3 Marked Pericentromeric Heterochromatin for Silencing of Major Satellite Repeats” (PLoS ONE, 2011)
Where no end group is shown, it is not given here. [ ]: non-standard residue; d: D form. The star is where a group is joined. Biotin = O=C1N[C@H]2[C@H](CS[C@H]2CCCCC(=O)*)N1; Lys(Me3) = C[N+](C)(C)CCCC[C@H](N)C(=O)O; d = 2'-deoxy (DNA)

Columns and labels:
HP1 = assay: ADNP peptide pulldown of HeLa S3 nuclear extract, western blot; format: binding
H4K20me3 = H4K20me3 levels and distribution after ADNP knockdown; format: cell-based, mouse; conditions: NIH3T3, ADNP knockdown; western blot and immunofluorescence
major satellite repeats = assay: Major satellite repeat transcripts, real time PCR; format: cell-based, mouse; conditions: ADNP knockdown NIH3T3; relative to GAPDH; vs scrambled siRNA or mock; triplicate
HP1α, HP1β and HP1γ = assay: HP1 distribution after ADNP knockdown; format: cell-based, mouse; conditions: NIH3T3, ADNP knockdown; immunofluorescence
H3K9me3 = H3K9me3 levels and distribution after ADNP knockdown; format: cell-based, mouse; conditions: NIH3T3, ADNP knockdown; western blot and immunofluorescence
ADNP = assay: siRNA knockdown, western blot; format: cell-based, mouse; conditions: NIH3T3, vs scrambled siRNA and untransfected (mock)
[1] = system: major satellite repeat sequences; assay: CpG methylation, Southern blot after TaiI digestion; format: cell-based, mouse; conditions: NIH3T3, ADNP knockdown
H3K27me1 = H3K27me1 levels and distribution after ADNP knockdown; format: cell-based, mouse; conditions: NIH3T3, ADNP knockdown; western blot and immunofluorescence

| Substance | HP1 binding (HP1) | effects on levels and distribution of H4K20me3 (H4K20me3) | level of major satellite transcripts (major satellite repeats) | distribution of HP1α, HP1β and HP1γ (HP1α, HP1β and HP1γ) | effects on levels and distribution of H3K9me3 (H3K9me3) | ADNP protein levels (ADNP) | reduction of CpG methylation at major satellite repeats [1] | effects on levels and distribution of H3K27me1 (H3K27me1) |
| --- | --- | --- | --- | --- | --- | --- | --- | --- |
| Biotin-EDDSYEAR[Lys(Me3)]SFLTKYFNKQP [ADNPK767me3, methylated ADNP peptide used for pulldown] | does not bind | – | – | – | – | – | – | – |
| ADNP siRNA: sense 5′ - [GAUUCUUAUGAGGCUAGGA] RNA [TT] DNA, antisense 5′ - [UCCUAGCCUCAUAAGAAUC] RNA [TT] DNA (RNA, 3' dTdT, backbone not given here) [sense 5′ - [GAUUCUUAUGAGGCUAGGA]; RNA [TT]; DNA, antisense 5′ - [UCCUAGCCUCAUAAGAAUC]; DNA] | – | no effects | elevated | appeared normal | no effects | significant reduction | no reduction | no effects |
